The record followed here is patent publication US6787525B1, “Glyceryl nucleotides, method for the production thereof and their use” (priority 1998, dated 2004).

In series [1] the test system is MCF7. Put plainly: In vitro cytostatic effect (SRB): MCF7, Breast cancer.
Series [2] deals with A498. In words: In vitro cytostatic effect (SRB): A498, Kidney cancer.
Series [3] concerns HCC-2998. In words: In vitro cytostatic effect (SRB): HCC-2998, Intestinal cancer.
Where [4] appears, read: read-out: LC50, 48-hour incubation.

For orientation: GI50 means the concentration giving 50% growth inhibition.

In the case of `CCCCCCCCCCCCCCCCCCOC(COP(=O)(O)OCC1OC(n2cc(F)c(=O)[nH]c2=O)CC1O)COP(=O)(O)OCC1OC(n2ccc(N)nc2=O)C(O)C1O` (racemic) [NSC 698688-A/1, arabinocytidylyl-(5′→1)-2-O-octadecyl-rac-glycerylyl-(3→5′)-5-fluoro-2′-deoxyuridine], the figures for the GI50 in series [1] (48-hour incubation), in series [2] (48-hour incubation) and in series [3] (48-hour incubation) were 170 nM, 319 nM and 58.8 nM, respectively. In addition, the TGI in series [1] (48-hour incubation) is on record as greater than 1.00E − 04 mol/l; in series [2] (48-hour incubation) it was greater than 1.00E − 04 mol/l; in series [3] (48-hour incubation), 3.50E − 05 mol/l. The CC50 in series [1] (setting [4]), in series [2] (setting [4]) and in series [3] (setting [4]) was greater than 100 µM in each case.
